In US5491172A, “N-acyl sulfamic acid esters (or thioesters), N-acyl sulfonamides, and N-sulfonyl carbamic acid esters (or thioesters) as hypercholesterolemic agents” (Warner-Lambert Company, priority 1994, dated 1996):

Assays:
[1] = target: acyl-CoA:cholesterol acyltransferase (ACAT); test: in vitro ACAT inhibition (LAI): radiolabeled cholesterol oleate formed from radiolabeled oleic acid in rat liver microsomes; format: biochemical; settings: concentration required to inhibit enzyme activity by 50%
Protocol: The ability of representative compounds of the present invention to inhibit ACAT was measured using an in vitro test more fully described in Field FJ, Salone RG, Biochemica et Biophysica, 1982;712:557-570. The test assesses the ability of a test compound to inhibit the acylation of cholesterol by oleic acid by measuring the amount of radiolabeled cholesterol oleate formed from radiolabeled oleic acid in a tissue preparation containing rat liver microsomes.

[2] = in vivo screen APCC: blood cholesterol in rats fed overnight a high fat, high cholesterol (PCC) diet; settings: male Sprague-Dawley rats, dosed at 4 PM, PCC diet with 0.5% cholic acid overnight, blood sampled 8 AM, dose not given
Text: In one in vivo screen designated APCC, male Sprague-Dawley rats (200 to 225 g) were randomly divided into treatment groups and dosed at 4 PM with either vehicle (CMC/Tween) or suspensions of compounds in vehicle. The normal chow diet was then replaced with a high fat, high cholesterol diet (designated PCC) containing 0.5% cholic acid. The rats consumed this diet ad libitum during the night and were sacrificed at 8 AM to obtain blood samples for cholesterol analysis using standard procedures. Statistical differences between mean cholesterol values for the same vehicle were determined using analysis of variance followed by Fisher's least significant test.

| Structure (SMILES) | IC50 [1] [µM] | % Change (mg/dl) in cholesterol [2] [%] |
| --- | --- | --- |
| CC(C)c1cc(C(C)C)c(OS(=O)(=O)NC(=O)Cc2c(C(C)C)cccc2C(C)C)c(C(C)C)c1 [Example 3, sulfamic acid[[2,6-bis(1-methylethyl)phenyl]acetyl]-2,4,6-tris(1-methylethyl)phenylester] | 11 | -79 |
| Cc1cc(C)c(CC(=O)NS(=O)(=O)Oc2c(C(C)C)cccc2C(C)C)c(C)c1 [Example 18, sulfamic acid[2,4,6-trimethylphenyl(acetyl)]-2,6-bis(1-methylethyl)phenyl ester] | 22 | -47 |
| CC(C)c1cccc(C(C)C)c1OS(=O)(=O)NC(=O)Cc1c(Cl)cccc1Cl [Example 14, sulfamic acid[2,6-dichlorophenyl(acetyl)]-2,6-bis(1-methylethyl)phenyl ester] | 33 | -12 |
| COc1cc(OC)c(CC(=O)NS(=O)(=O)Oc2c(C(C)C)cccc2C(C)C)c(OC)c1 [Example 17, sulfamic acid[2,4,6-trimethoxyphenyl(acetyl)]-2,6-bis(1-methylethyl)phenyl ester] | > 50 | -40 |
| CC(C)c1cccc(C(C)C)c1OS(=O)(=O)NC(=O)CC(c1ccccc1)c1ccccc1 [Example 13, sulfamic acid(1-oxo-3,3-diphenylpropyl)-2,6-bis(1-methylethyl)phenyl ester] | 25 | -31 |
| COc1ccccc1CC(=O)NS(=O)(=O)Oc1c(C(C)C)cccc1C(C)C [Example 21, sulfamic acid[2-methoxyphenyl(acetyl)]-2,6-bis(1-methylethyl)phenyl ester] | 55 | -16 |

Now from value to molecule, other results behind:

| IC50 [1] [µM] | Structure (SMILES) | % Change (mg/dl) in cholesterol [2] [%] |
| --- | --- | --- |
| 9.3 | CC(C)c1cccc(C(C)C)c1OS(=O)(=O)NC(=O)C(c1ccccc1)C1CCCCC1 (stereo not drawn) [Example 33, sulfamic acid(cyclohexylphenylacetyl)-2,6-bis(1-methylethyl)phenyl ester] | -63 |
| 31 | CC(C)c1cccc(C(C)C)c1OS(=O)(=O)NC(=O)CCc1ccccc1 [Example 38, sulfamic acid(1-oxo-3-phenylpropyl)-2,6-bis(1-methylethyl)phenyl ester] | -16 |
| 28 | CC(C)c1cccc(C(C)C)c1OS(=O)(=O)NC(=O)CC1CCCCC1 [Example 26, sulfamic acid(cyclohexylacetyl)-2,6-bis(1-methylethyl)phenyl ester] | -26 |
| 34 | CC(C)c1cc(C(C)C)c(OCC(=O)NS(=O)(=O)Oc2c(C(C)C)cccc2C(C)C)c(C(C)C)c1 [Example 46, sulfamic acid[[2,4,6-tris(1-methylethyl)phenoxy]acetyl]-2,6-bis(1-methylethyl)phenyl ester] | -57 |
| 38 | CC(C)c1cccc(C(C)C)c1OCC(=O)NS(=O)(=O)Oc1c(C(C)C)cccc1C(C)C [Example 47, sulfamic acid[[2,6-bis(1-methylethyl)phenoxy]acetyl]-2,6-bis(1-methylethyl)phenyl ester] | -46 |
| 16 | CC(C)c1cccc(C(C)C)c1OS(=O)(=O)NC(=O)C1c2ccccc2-c2ccccc21 [Example 37, sulfamic acid[(9H-fluoren-9yl)carbonyl]-2,6-bis(1-methylethyl)phenyl ester] | -50 |
| 26 | CC(C)c1cccc(C(C)C)c1OS(=O)(=O)NC(=O)C(C)c1ccccc1 (stereo not drawn) [Example 24, sulfamic acid(1-oxo-2-phenylpropyl)-2,6-bis(1-methylethyl)phenyl ester] | -24 |
| 3.3 | CCC(C)C(C(=O)NS(=O)(=O)Oc1c(C(C)C)cccc1C(C)C)c1ccccc1 (stereo not drawn) [Example 31, sulfamic acid(3-methyl-1-oxo-2-phenylpentyl)-2,6-bis(1-methylethyl)phenyl ester] | -30 |
| 8.3 | CC(C)c1cc(C(C)C)c(CC(=O)NS(=O)(=O)Oc2c(-c3ccccc3)cccc2-c2ccccc2)c(C(C)C)c1 [Example 48, sulfamic acid[[2,4,6-tris(1-methylethyl)phenyl]acetyl]-2,6-bis(phenyl)phenyl ester] | -73 |
